Measurements reported in patent publication US20020039778A1, “Isolated and purified DNA molecule and protein for the degradation of triazine compounds” (Regents of the University of Minnesota, priority 1995, published 2002).

Assays:
[1] = target: T1, N-ethylammeline chlorohydrolase (TrzA) (Gordonia rubripertincta, UniProt Q52725); conditions: cited from earlier work
T1 sequence (Q52725 1-477): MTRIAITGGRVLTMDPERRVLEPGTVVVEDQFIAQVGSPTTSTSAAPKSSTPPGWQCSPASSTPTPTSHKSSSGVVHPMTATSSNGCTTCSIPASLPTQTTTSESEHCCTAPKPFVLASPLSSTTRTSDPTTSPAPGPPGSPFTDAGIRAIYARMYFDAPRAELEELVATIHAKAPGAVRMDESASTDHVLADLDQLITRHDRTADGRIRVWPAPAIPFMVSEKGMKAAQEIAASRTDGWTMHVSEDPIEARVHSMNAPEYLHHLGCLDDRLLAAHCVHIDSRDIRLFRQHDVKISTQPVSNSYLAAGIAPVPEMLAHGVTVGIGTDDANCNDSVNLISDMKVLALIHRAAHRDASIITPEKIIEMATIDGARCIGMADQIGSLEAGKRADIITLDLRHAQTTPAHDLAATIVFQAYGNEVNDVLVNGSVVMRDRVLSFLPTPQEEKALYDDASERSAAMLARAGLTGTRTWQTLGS

[2] = tested on: B. japonicum strain USDA 123 (pMD1); test: Atrazine degradation by Bradyrhizobium japonicum carrying pMD1 (plate clearing, HPLC); format: cell-based
Method: Atrazine degradation gene expressed in Bradyrhizobium japonicum. […] The pMD1 was transferred from E. coli DH5α (pMD1) to B. japonicum strains USDA 123 by conjugation. This was done by using helper plasmid pRK2073 and the triparental mating procedure of Leong et al., J. Bio. Chem, 257, 8724-8730 (1982). This was done using a modified patch mating technique. Equal quantities of E. coli DH5α (pMD1), […] and spread to the size of a nickel. The patch was incubated for 4 days at 28° C. and the resulting bacterial growth was removed from the pate, serially diluted in 0.85% NaCl plus 0.01% tween 80, and spread onto the surface of minimal AG plates (Ag without yeast extract) containing 60 μg/ml tetracycline. Plates were incubated for 2 weeks at 28° C. […] Atrazine degradation was verified by HPLC analysis. The identity of transconjugants was verified by using strain specific fluorescent antibodies prepared according to Schmidt et al., J. Bacteriol., 95, 1987-1992 (1968).

[3] = target: T2, atrazine chlorohydrolase (AtzA) (Pseudomonas sp., UniProt P72156); test: Enzyme kinetics of purified AtzA (HPLC)
Method: (§2) Enzyme Kinetics. […] The reactions were stopped by boiling the reaction tubes at specific times, the addition of 500 μl acetonitrile and rapid freezing at −80° C. Thawed samples were centrifuged at 14,000 rpm for 10 minutes, the supernatants were filtered through a 0.2 μM filter, and placed into crimp-seal HPLC vials. HPLC analysis was done as described above.

[4] = target: T2, atrazine chlorohydrolase (AtzA); test: Substrate range of purified AtzA in vitro; format: biochemical, Pseudomonas sp. strain ADP; set-up: made in house; host or cells: E. coli transformed with pMD4 (1.9-kb AvaI genomic fragment in pACYC184); conditions: purified enzyme in vitro
Method: High performance liquid chromatography (HPLC) analysis was performed using a Hewlett-Packard HP 1090 Liquid Chromatograph system equipped with a photodiode array detector and interfaced to an HP 79994A Chemstation. […] Linear gradients of 0-6 minutes, 10-25% acetonitrile (ACN); 6-21 minutes, 25-65% ACN; 21-23 minutes, 65-100% ACN; and 23-25 minutes 100% ACN, were used. Spectral data of the column eluent was acquired between 200-400 nm (12 nm bandwidth per channel) at a sampling frequency of 640 milliseconds. Spectra were referenced against a signal at 550 nm.
The solution was loaded onto a Mono Q HR 16/10 Column (Pharmacia LKB Biotechnology, Uppsala, Sweden). The column was washed with 25 mM MOPS buffer (pH 6.9), and the protein was eluted with a 0-0.5 M KCl gradient. Protein eluting from the column was monitored at 280 nm by using a Pharmacia U.V. protein detector. Pooled fractions containing the major peak were dialyzed overnight against 1 liter 25 mM MOPS buffer (pH 6.9). The dialyzed material was assayed for atrazine degradation ability by using HPLC analysis (see above) and analyzed for purity by sodium dodecyl sulfate (SDS) polyacrylamide gel electrophoreses (Laemlli).
The AtzA protein was examined for its ability to degrade various triazine compounds in vitro.

[5] = tested on: Pseudomonas species strain ADP; test: Effect of simple nitrogen sources on atrazine degradation (plate clearing); format: cell-based; conditions: solid media with 500 ppm atrazine, 2 weeks of incubation at 28° C. or 37° C.
Method: (§1) Analytical methods: plate assays, high performance liquid chromatography (HPLC), thin layer chromatography (TLC), and liquid-liquid partitioning analyses. Atrazine or hydroxyatrazine were incorporated in solid LB or minimal medium, as described in Mandelbaum et al., Appl. Environ. Microbiol., 61, 1451-1457 (1995), at a final concentration of 500 μg/ml to produce an opaque suspension of small particles in the clear agar. The degradation of atrazine or hydroxyatrazine by wild-type and recombinant bacteria was indicated by a zone of clearing surrounding colonies.

[6] = tested on: E. coli DH5α (pMD1 or pMD2); test: as above; format: cell-based, Escherichia coli
Method: as §1

[7] = tested on: CCNc1nc(Cl)nc(NC(C)C)n1; test: purified protein, by the assay type; conditions: other: purified AtzA 50 μg/ml, 25 mM MOPS pH 6.9, room temperature
Method: as §2

[8] = protein concentration of 50 mg/liter

T2 sequence (P72156 whole entry, the tested form may be a part): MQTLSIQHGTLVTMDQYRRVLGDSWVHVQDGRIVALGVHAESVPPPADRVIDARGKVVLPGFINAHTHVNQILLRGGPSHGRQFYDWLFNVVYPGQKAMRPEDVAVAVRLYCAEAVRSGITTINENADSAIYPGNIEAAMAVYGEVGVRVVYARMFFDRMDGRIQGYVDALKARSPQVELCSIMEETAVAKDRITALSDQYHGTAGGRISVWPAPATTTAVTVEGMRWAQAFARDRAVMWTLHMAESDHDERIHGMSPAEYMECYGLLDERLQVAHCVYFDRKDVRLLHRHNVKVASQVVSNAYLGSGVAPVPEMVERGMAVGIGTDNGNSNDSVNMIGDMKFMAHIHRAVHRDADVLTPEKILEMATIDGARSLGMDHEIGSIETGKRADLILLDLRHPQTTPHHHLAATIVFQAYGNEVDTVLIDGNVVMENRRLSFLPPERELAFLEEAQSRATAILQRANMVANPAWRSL

CCNc1nc(Cl)nc(NC(C)C)n1 [Atrazine, 2-chloro-4-ethylamino-6-isopropylamino-1,3,5-s-triazine]
Degradation of substrate by TrzA [1]: does not degrade
time to clear atrazine on plates ([2]; AG media plates containing up to 500 ppm atrazine): 10 days
atrazine in overnight culture broth by HPLC ([2]; supplied atrazine 33 ppm): no atrazine detectable
time to degrade about 100 μM of atrazine to about 1 μM [3, 8]: about 1.35 hours
time to degrade about 30 ppm of atrazine to about 3 ppb [3, 8]: about 2.6 hours
Km ([3]; read-out: Km of AtzA for atrazine, purified AtzA 50 μg/ml, 25 mM MOPS pH 6.9, room temperature): 125 µM

CCNc1nc(N)nc(Cl)n1 [Desisopropylatrazine, 2-chloro-4-ethylamino-6-amino-s-triazine]
Degradation of substrate by TrzA [1]: ability to dechlorinate
Km ([1]; reported for the related triazine hydrolase TrzA): 82 µM
Degradation of substrate by AtzA ([4]; listed as deisopropylatrazine): ability to dechlorinate

Nc1nc(N)nc(N)n1 [Melamine, 2,4,6-triamino-s-triazine]
Degradation of substrate by AtzA [4]: not substrates
Degradation of substrate by AtzA ([4]; listed as melamine): does not degrade

CCNc1nc(Cl)nc(NCC)n1 [Simazine, 2-chloro-4,6-diethylamino-s-triazine]
Degradation of substrate by TrzA [1]: does not degrade

CCNc1nc(Cl)nc(NC(C)(C)C)n1 [Tertbutylazine, 2-chloro-4-ethylamino-6-terbutylamino-s-triazine]
Degradation of substrate by AtzA [4]: not substrates

Cl.N [ammonium chloride]
ammonium chloride concentration sufficient to inhibit visible clearing of atrazine [5]: 0.6 to 1.2 mM
tolerance for ammonium chloride with concomitant atrazine degradation, relative to wild-type ([6]; E. coli DH5α (pMD1 or pMD2) vs Pseudomonas strain ADP): 40-80 fold
ammonium chloride concentration in whose presence atrazine degradation (clearing) was observed ([6]; solid media with 500 ppm atrazine): ≤ 48 mM

atrazine chlorohydrolase (AtzA) (Pseudomonas sp. ADP)
Km [7]: 125 µM
